Reference: patent publication US12637471B2, “Heterocyclic compounds, compositions, methods of preparation and uses thereof” (Organon R&D Finland Ltd, priority 2021, dated 2026)

Assays:
Type in all cases: biochemical
[1] = target: T1, Recombinant human AKR1C3 (17β-HSD5) protein (Homo sapiens, UniProt P42330); assay: Inhibition of AKR1C3 (17β-hydroxysteroid dehydrogenase type 5) enzyme, fluorescence assay; settings: inhibitor at 500 nM
T1 construct: made in house; host or cells: E. coli
T1 sequence (P42330 1-323): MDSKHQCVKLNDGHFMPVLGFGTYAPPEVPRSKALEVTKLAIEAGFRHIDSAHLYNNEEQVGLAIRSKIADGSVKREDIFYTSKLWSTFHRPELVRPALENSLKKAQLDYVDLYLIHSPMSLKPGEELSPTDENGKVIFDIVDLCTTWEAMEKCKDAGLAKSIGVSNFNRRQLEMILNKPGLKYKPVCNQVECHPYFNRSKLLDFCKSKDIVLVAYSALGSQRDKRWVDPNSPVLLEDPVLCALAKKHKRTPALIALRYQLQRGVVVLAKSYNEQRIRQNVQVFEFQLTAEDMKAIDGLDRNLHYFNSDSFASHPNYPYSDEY
Outline: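 E. coli-expressed human AKR1C3 (27 nM) in 20 mM KH2PO4, 1 mM EDTA, pH 7.4, with 1 μM pyranoquinolinone ketone substrate, 1 mM NADPH and inhibitor at 500 nM, 1% DMSO, 60–120 min at RT. Fluorescent alcohol product (ex 420/em 510 nm) quantified against standards; inhibition derived from conversion percentages.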

[2] = target: T2, Recombinant human aldo-keto reductase family 1 member C2 (AKR1C2) protein (Homo sapiens, UniProt P52895); assay: Inhibition of the aldo-keto reductase family 1 member C2, 3H-dihydrotestosterone conversion; settings: inhibitor at 10 μM
T2 construct: made in house; host or cells: Sf-9 insect cells (baculovirus)
T2 sequence (P52895 1-323): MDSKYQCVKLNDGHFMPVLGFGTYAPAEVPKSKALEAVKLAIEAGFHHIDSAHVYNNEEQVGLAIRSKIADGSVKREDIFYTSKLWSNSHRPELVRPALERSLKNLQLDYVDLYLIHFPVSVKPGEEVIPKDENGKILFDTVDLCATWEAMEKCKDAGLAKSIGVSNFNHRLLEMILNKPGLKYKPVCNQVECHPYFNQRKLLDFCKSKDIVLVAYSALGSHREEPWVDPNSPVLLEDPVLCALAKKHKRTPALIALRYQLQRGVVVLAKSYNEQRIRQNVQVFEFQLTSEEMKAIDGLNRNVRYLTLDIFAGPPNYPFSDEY
Outline: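 Sf-9-expressed enzyme (13.6 nM) incubated 45 min at 37 °C in 20 mM KH2PO4 pH 7.4 with 1 mM NADPH, 6.25 nM [3H]dihydrotestosterone and 10 μM compound (1% DMSO). After TCA stop, substrate and 5α-androstane-3α,17β-diol resolved by UPLC with radio-detection; inhibition from percent conversion.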

[3] = target: T3, 17β-Hydroxysteroid Dehydrogenase Type 2 Enzyme (17β-HSD2) (Homo sapiens, UniProt P37059); assay: Inhibition of the 17β-hydroxysteroid dehydrogenase type 2 enzyme, 3H-testosterone conversion; settings: inhibitor at 10 μM
T3 construct: made in house; host or cells: Sf-9 insect cells (baculovirus)
T3 sequence (P37059 1-387): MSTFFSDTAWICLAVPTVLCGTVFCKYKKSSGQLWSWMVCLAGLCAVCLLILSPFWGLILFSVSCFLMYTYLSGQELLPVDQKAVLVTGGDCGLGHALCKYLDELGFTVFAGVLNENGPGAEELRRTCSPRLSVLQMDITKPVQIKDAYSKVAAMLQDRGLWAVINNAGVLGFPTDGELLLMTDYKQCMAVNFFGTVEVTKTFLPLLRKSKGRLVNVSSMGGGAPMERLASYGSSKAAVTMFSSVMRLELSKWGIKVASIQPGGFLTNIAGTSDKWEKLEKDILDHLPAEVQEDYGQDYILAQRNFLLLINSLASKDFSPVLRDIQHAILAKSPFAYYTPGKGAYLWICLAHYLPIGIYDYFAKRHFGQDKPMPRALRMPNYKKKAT
Outline: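 Recombinant human 17β-HSD2 (Sf-9/baculovirus; 105 nM) incubated with 56.25 nM ³H-testosterone and 1 mM NAD in 20 mM KH2PO4 pH 8.5, 1 mM EDTA, 1% DMSO, 30 min at RT, inhibitor 10 μM. Reaction stopped with TCA; conversion to ³H-androstenedione by radio-UPLC gives percent inhibition.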

Structure (SMILES)	inhibition at 0.5 µM [1] [%]	inhibition at 10 µM [2] [%]	inhibition at 10 µM [3] [%]
N#CC(=C1CCN(C(=O)N2CCc3[nH]ncc3C2)CC1)c1ccc(F)cc1 [Compound 25, 2-(4-fluorophenyl)-2-(1-(4,5,6,7-tetrahydro-1H-pyrazolo[4,3-c]pyridine-5-carbonyl)piperidin-4-ylidene)acetonitrile]	98	28	27
N#CC(=C1CCN(C(=O)N2CCc3[nH]ncc3C2)CC1)c1ccc(Cl)cn1 [Compound 67, 2-(5-chloropyridin-2-yl)-2-(1-(4,5,6,7-tetrahydro-1H-pyrazolo[4,3-c]pyridine-5-carbonyl)piperidin-4-ylidene)acetonitrile]	98	6	9
N#CC(=C1CCN(C(=O)N2CCc3[nH]ncc3C2)CC1)c1cccc2cn[nH]c12 [Compound 71, 2-(1H-indazol-7-yl)-2-(1-(4,5,6,7-tetrahydro-1H-pyrazolo[4,3-c]pyridine-5-carbonyl)piperidin-4-ylidene)acetonitrile]	99	12	29
N#CC(=C1CCN(C(=O)N2CCC(CO)CC2)CC1)c1ccc(Cl)s1 [Compound 63, 2-(5-chlorothiophen-2-yl)-2-(1-(4-(hydroxymethyl)piperidine-1-carbonyl)piperidin-4-ylidene)acetonitrile]	99	29	22
N#CC(=C1CCN(C(=O)N2CCC(CO)CC2)CC1)c1cccc2[nH]ncc12 [Compound 49, 2-(1-(4-(hydroxymethyl)piperidine-1-carbonyl)piperidin-4-ylidene)-2-(1H-indazol-4-yl)acetonitrile]	98	6	22
N#CC(=C1CCN(C(=O)N2CCC(O)CC2)CC1)c1ccc(Cl)cc1 [Compound 18, 2-(4-chlorophenyl)-2-(1-(4-hydroxypiperidine-1-carbonyl)piperidin-4-ylidene)acetonitrile]	99	7	11
CCOC1CCN(C(=O)N2CCC(=C(C#N)c3ccc(F)cc3)CC2)CC1 [Compound 20, 2-(1-(4-ethoxypiperidine-1-carbonyl)piperidin-4-ylidene)-2-(4-fluorophenyl)acetonitrile]	97	2	9
N#CC(=C1CCN(C(=O)N2CCn3cncc3C2)CC1)c1ccc(F)cc1 [Compound 27, 2-(4-fluorophenyl)-2-(1-(5,6,7,8-tetrahydroimidazo[1,5-a]pyrazine-7-carbonyl)piperidin-4-ylidene)acetonitrile]	98	16	7
N#CC(=C1CCN(C(=O)N2CCc3nocc3C2)CC1)c1ccc(F)c(F)c1 [Compound 32, 2-(3,4-difluorophenyl)-2-(1-(4,5,6,7-tetrahydroisoxazolo[4,3-c]pyridine-5-carbonyl)piperidin-4-ylidene)acetonitrile]	97	17	4

Further lines, results first:

inhibition at 0.5 µM [1] [%]	inhibition at 10 µM [2] [%]	inhibition at 10 µM [3] [%]	Structure (SMILES)
96	5	0	N#CC(=C1CCN(C(=O)N2CCCCC2)CC1)c1ccc(Cl)cc1 [Compound 104, 2-(4-chlorophenyl)-2-(1-(piperidine-1-carbonyl)piperidin-4-ylidene)acetonitrile]
98	9	17	N#CC(=C1CCN(C(=O)N2CCC(CO)CC2)CC1)c1ccc(Cl)cc1 [Compound 74, 2-(4-chlorophenyl)-2-(1-(4-(hydroxymethyl)piperidine-1-carbonyl)piperidin-4-ylidene)acetonitrile]
97	10	2	N#CC(=C1CCN(C(=O)N2CCC(S(N)(=O)=O)CC2)CC1)c1ccc(Cl)cc1 [Compound 126, 1-(4-((4-chlorophenyl)(cyano)methylene)piperidine-1-carbonyl)piperidine-4-sulfonamide]
99	5	4	N#CC(=C1CCN(C(=O)N2CCOCC2)CC1)c1ccc(C(F)(F)F)cc1 [Compound 147, 2-(1-(morpholine-4-carbonyl)piperidin-4-ylidene)-2-(4-(trifluoromethyl)phenyl)acetonitrile]
100	21	6	N#CC(=C1CCN(C(=O)N2CCn3nncc3C2)CC1)c1ccc(C(F)(F)F)cc1 [Compound 150, 2-(1-(4,5,6,7-tetrahydro-[1,2,3]triazolo[1,5-a]pyrazine-5-carbonyl)piperidin-4-ylidene)-2-(4-(trifluoromethyl)phenyl)acetonitrile]
90	6	7	N#CC(=C1CCN(C(=O)N2CCC(S(N)(=O)=O)CC2)CC1)c1ccc(C(F)(F)F)cc1 [Compound 148, 1-(4-(cyano(4-(trifluoromethyl)phenyl)methylene)piperidine-1-carbonyl)piperidine-4-sulfonamide]
92	6	-2	N#CC(=C1CCN(C(=O)N2CCSCC2)CC1)c1ccc(F)cc1 [Compound 100, 2-(4-fluorophenyl)-2-(1-(thiomorpholine-4-carbonyl)piperidin-4-ylidene)acetonitrile]
95	-2	13	CCN(CC)C(=O)N1CCC(=C(C#N)c2ccc(F)cn2)CC1 [Compound 172, 4-(cyano(5-fluoropyridin-2-yl)methylene)-N,N-diethylpiperidine-1-carboxamide]
94	22	25	N#CC(=C1CCN(C(=O)N2CCC(CCCO)CC2)CC1)c1cccc(Cl)c1 [Compound 95, 2-(3-chlorophenyl)-2-(1-(4-(3-hydroxypropyl)piperidine-1-carbonyl)piperidin-4-ylidene)acetonitrile]
93	5	2	COCC1CCN(C(=O)N2CCC(=C(C#N)c3ccc(F)cc3)CC2)CC1 [Compound 106, 2-(4-fluorophenyl)-2-(1-(4-(methoxymethyl)piperidine-1-carbonyl)piperidin-4-ylidene)acetonitrile]
99	21	19	N#CC(=C1CCN(C(=O)N2CCn3nncc3C2)CC1)c1cccc(Cl)c1 [Compound 155, 2-(3-chlorophenyl)-2-(1-(4,5,6,7-tetrahydro-[1,2,3]triazolo[1,5-a]pyrazine-5-carbonyl)piperidin-4-ylidene)acetonitrile]
93	9	7	CC(=O)N1CCN(C(=O)N2CCC(=C(C#N)c3ccc(F)cc3)CC2)CC1 [Compound 143, 2-(1-(4-acetylpiperazine-1-carbonyl)piperidin-4-ylidene)-2-(4-fluorophenyl)acetonitrile]
